# Measured values published in paper PMC7828231, “Delphinidin Increases the Sensitivity of Ovarian Cancer Cell Lines to 3-bromopyruvate” (International Journal of Molecular Sciences, 2021).
# Columns and labels:
# Assay type in all cases: cell-based, human
# [1] = test system: MRC-5 fibroblasts; test: ATP level (CellTiter-Glo); conditions: 25-µM D, 40 µM 3-BP, 24 h
# Procedure: (§1) To determine the ATP level in the cells, the CellTiter-Glo® Luminescent Cell Viability Assay (Promega) was used. This method is based on the ATP-dependent conversion of luciferin to the luminescent oxyluciferin. Briefly, cells were seeded in a white/clear bottom 96-well plate with a density of 1 × 10^4/well (SKOV3 and PEO1) or 7.5 × 10^3/well (MRC-5). After 24-h incubation, the cells were treated with 25-µM D, a IC50 concentration of 3-BP (SKOV3 and MRC-5: 40 µM and PEO1: 20 µM) and both compounds simultaneously. The ATP level was determined after 24-h exposure to the tested compounds. The plate was equilibrated at room temperature for approximately 25 minutes. Next, 100 µL of the CellTiter-Glo® Reagent was added to each well, and the plate was shaken for 2 minutes. Then, the plate was left at room temperature for 10 minutes, and the luminescence was measured in a Spark multimode microplate reader (Tecan Group LTD., Männedorf, Switzerland).
# [2] = test system: PEO1 cells; test: ATP level (CellTiter-Glo); conditions: 25-µM D, 20 µM 3-BP, 24 h
# Procedure: as §1
# [3] = test system: SKOV3 cells; test: ATP level (CellTiter-Glo); conditions: 25-µM D, 40 µM 3-BP, 24 h
# Procedure: as §1
# [4] = test system: PEO1 cells; test: Mitochondrial membrane potential (JC-1); conditions: 25-µM D, 20 µM 3-BP, 24 h
# Procedure: (§2) Changes of mitochondrial membrane potential was evaluated using 5,5′,6,6′-tetrachloro-1,1′,3,3′-tetraethyl-imidacarbocyanine iodide, 5,5′,6,6′-tetrachloro-1,1′,3,3′-tetraethylbenzimidazolocarbocyanine iodide (JC-1) with a Mitochondrial Membrane Potential Assay Kit.
# (§3) The cells were seeded into black plates and treated as mentioned before. After 24h incubation with the studied compounds, the medium was discharged and replaced with 100x diluted JC-1 reagent in complete culture medium and incubated for 30 min in a CO2 incubator. Next, the plate was centrifuged at 4000 rpm for 5 min and afterwards the reagent was aspirated, and cells were washed with 150 μL/well Cell-Based Assay Buffer and centrifuged once more. After removing the supernatant, 100 μL/well of the new buffer was added. Fluorescence was measured at 540/570 nm (red fluorescence) and 485/535 nm (green fluorescence). The results were presented as a ratio of green to red fluorescence intensity ratio.
# [5] = test system: SKOV3 cells; test: Mitochondrial membrane potential (JC-1); conditions: 25-µM D, 40 µM 3-BP, 24 h
# Procedure: as §2, §3
# [6] = test system: PEO1 cells; test: Mitochondrial mass (NAO); conditions: 25-µM D, 20 µM 3-BP, 24 h
# Procedure: (§4) Cells were seeded at the density of 2 × 10^5 cells/well onto a 24-well plate and cultured as stated before. Following 24-hour exposure to the studied compounds, the cells were trypsinized, counted and transferred to separate Eppendorf tubes, and then centrifuged for 6 minutes at 3000 rpm. Subsequently the supernatant was discharged and the cells were washed with 1 mL of PBS and centrifuged again. Afterwards, 1 mL of 10 μM NAO solution in PBS was added into the samples, and incubated for 10 min in a CO2 incubator at 37 °C. Next, the cells were centrifuged and the pellet was washed with PBS, and resuspended in 300 μL of PBS. Each sample was transferred into a 96-well black plate (100 μL/well; 3 repetitions). Fluorescence was measured at 435/535 nm. The results were determined in relation to the cell count.
# [7] = test system: SKOV3 cells; test: Mitochondrial mass (NAO); conditions: 25-µM D, 40 µM 3-BP, 24 h
# Procedure: as §4
# [8] = test system: PEO1 cells; test: Atto-488-phalloidin and Mitotracker labeling (confocal); conditions: 24 h
# Procedure: (§5) Cells were seeded on an 8-well chamber slide (Lab-Tek™ II Chamber Slide™ System cat. no. 154534, Thermo Scientific, Waltham, MA, USA) at a density of 2.5 × 10^4 cells/chamber and allowed to attach at 37 °C. Subsequently, PEO1 and SKOV3 cells were treated with 25-µM D, 20-µM or 40-µM 3-BP (depending on the cell line) or both substances together for 24 h. Following the treatment, the medium was removed and replaced with 200-nM solution of Mitotracker Deep Red FM (i) (cat. no. M22426, Thermo Scientific, Waltham, MA, USA) in PBS and incubated for 30 min; in a CO2 incubator, the cells were washed with PBS (300 μL/well) and fixed with 200-μL/well 3.7% formaldehyde for 10 min. Then, the cells were washed with PBS (200 μL/well), permeabilized with 0.1% Triton X-100 solution (200 μL/well) for 10 min and washed with PBS (700 μL/well).
# (§6) Following the treatment, the medium was removed and replaced with 150 μL/well of phalloidin working solution (ii) (prepared according to the manufacturer’s protocols) and incubated for 60 min.
# (§7) After staining i or ii, the fixed cells were washed again, 600-nM solution of DAPI in PBS was added (200 µL/well), the cells were incubated at room temperature for 60 minutes and their micrographs were taken using a Zeiss LSM 710 inverted confocal microscope (Oberkochen, Germany). The ratio of fluorescence intensity of the mitochondria and cytoskeleton (expressed as a mean gray value) was calculated using ImageJ software. The corrected total cell fluorescence (CTFT) per cell was calculated according to https://theolb.readthedocs.io/en/latest/imaging/measuring-cell-fluorescence-using-imagej.html.
# [9] = test system: SKOV3 cells; test: as above; conditions: 25-µM D, 40-µM 3-BP, 24 h
# Procedure: as §5, §6, §7
# [10] = test system: SKOV3 cells; test: Cell migration (scraped area closure)
# Procedure: Ovarian cancer cells and human normal fibroblasts were seeded on a 24-well plate at a density of 7 × 10^4/well (PEO1), 6.5 × 10^4/well (SKOV3) and 6 × 10^4/well (MRC-5) in 700 µL of appropriate cell medium and cultured at 37 °C to reach 90–95% confluence. Then, the cells in the middle of the wells were scraped off using sterile pipette tips (100 µL), cell debris was removed by washing with medium containing 2% FBS and the tested compounds diluted with medium containing 2% FBS were added. Images of the scraped area were collected after 12 h and 24 h at 10× objective magnification using an Olympus CKX53 microscope with a U-TV0. 5XC-3 digital microscope camera. The obtained results were analyzed using ImageJ software. The percentage of scraped area closure was estimated as the ratio of area measured after 12- or 24-h incubation and the area at the beginning of the experiment.
# [11] = test system: PEO1 cells; test: Apoptosis and necrosis assay (RealTime-Glo Annexin V); conditions: after 24 h
# Procedure: The levels of apoptosis and necrosis were assayed using the RealTime-Glo™ Annexin V Apoptosis and Necrosis Assay. Cells were seeded into a white 96-well plate with optical bottom, cultured and treated adequately, as stated above. After 24 h, 100 μL of the freshly prepared reagent was added to each well according to the manufacturer’s protocols. The fluorescence and luminescence were measured according to the protocols.
compound,measurement,setting,value
"O=C(O)C(=O)CBr [3-BP, 3-bromopyruvic acid]",ATP content,[1],not affected
same,ATP content,[2],decrease
same,ATP content,[3],neither 3-BP nor D affected
same,mitochondrial potential (JC-1 fluorescence ratio),[4],decreased
same,mitochondrial potential (JC-1 fluorescence ratio),[5],increased
same,mitochondrial mass,[6],increased
same,mitochondrial mass,[7],increased
same,increase in the intensity of staining with Atto-488-phalloidin with respect to the control,[8]; 20-µM 3-BP,~51%
same,decrease in the intensity of staining with Mitotracker Red with respect to the control,"[8]; 25-µM D, 20-µM 3-BP",about 7%
same,decrease in the intensity of staining with Atto-488-phalloidin with respect to the control,[9],about 33%
same,decrease in the intensity of staining with Mitotracker Red with respect to the control,[9],about 39%
same,cell migration,[10],decreased
same,induction of necrosis,[11],considerable induction of necrosis
"Oc1cc(O)c2cc(O)c(-c3cc(O)c(O)c(O)c3)[o+]c2c1 [Delphinidin chloride, 3,3′,4′,5,5′,7-hexahydroxyflavylium]",ATP content,[1],not affected
same,ATP content,[2],did not change
same,ATP content,[3],neither 3-BP nor D affected
same,mitochondrial potential (JC-1 fluorescence ratio),[4],decreased
same,mitochondrial potential (JC-1 fluorescence ratio),[5],increased
same,mitochondrial mass,[6],increased
same,mitochondrial mass,[7],decreased
same,decrease in the intensity of staining with Atto-488-phalloidin with respect to the control,"[8]; 25-µM D, 20-µM 3-BP",~17%
same,increase in the intensity of staining with Mitotracker Red with respect to the control,[8]; 25-µM D,about 7%
same,decrease in the intensity of staining with Atto-488-phalloidin with respect to the control,[9],~67%
same,decrease in the intensity of staining with Mitotracker Red with respect to the control,[9],~94%
same,cell migration,[10],decreased
same,induction of necrosis,[11],considerable induction of necrosis
